Experimental data published in ChEMBL document CHEMBL1128496, “Anti-AIDS (acquired immune deficiency syndrome) agents. 17. New brominated hexahydroxybiphenyl derivatives as potent anti-HIV agents” (J Med Chem, 1995).
In brackets after ≈: the same amount, converted by molar mass. Several values for one entry are separate records, joined by “and”; a condition that tells them apart may be missing. Equal entries are not always repeated.

Assays:
[1] = Anti-HIV activity was evaluated by measuring the growth inhibition of acutely infected H9 lymphocytes as EC50.; assay type: functional; details: Human immunodeficiency virus 1
[2] = Anti-HIV activity was evaluated by measuring the growth inhibition of acutely infected H9 lymphocytes as IC50.; assay type: functional; details: Human immunodeficiency virus 1
[3] = Anti-HIV activity evaluated by measuring the growth inhibition of acutely infected H9 lymphocytes as therapeutic index.; parameters: species or system Human immunodeficiency virus 1; details: for selectivity ratio: human immunodeficiency virus 1, H9 lymphocytes acutely infected with HIV-1, read-out: TI; for TI: Human immunodeficiency virus 1
H9 [4] = assay: Anti-HIV activity of compound was evaluated by measuring the growth inhibition of acutely infected H9 lymphocytes as IC50.; assay type: functional, Homo sapiens
[5] = Effect against HIV-1 expression in a chronically infected human T cell line ACH-2; assay type: functional, Human immunodeficiency virus 1
[6] = Effect against HIV-1 expression in a chronically infected human T cell line ACH-2i n the presence of PMA(phorbol 12-myristate 13-acetate); assay type: functional, Human immunodeficiency virus 1
H9 [7] = assay: Anti-HIV activity of compound was evaluated by measuring the growth inhibition of acutely infected H9 lymphocytes.; assay type: functional, cell-based; details: Homo sapiens
[8] = Effect against HIV-1 chronically infected promonocytic cell line U1; assay type: functional, Human immunodeficiency virus 1
[9] = Effect against HIV-1 chronically infected promonocytic cell line U1 in the presence of PMA(phorbol 12-myristate 13-acetate); assay type: functional, Human immunodeficiency virus 1
[10] = Effect against HIV-1 expression in a chronically infected human T cell line ACH-2 in the presence of PMA(phorbol 12-myristate 13-acetate); assay type: functional, Human immunodeficiency virus 1
ACH-2 cell line [11] = assay: Effect against HIV-1 chronically infected […] cell line ACH-2 cells; assay type: functional, Homo sapiens
ACH-2 cell line [12] = assay: Effect against HIV-1 chronically infected […] cell line ACH-2 cells in the presence of PMA(phorbol 12-myristate 13-acetate); assay type: functional, Homo sapiens

COc1c(Br)c(C(=O)O)c(-c2c3c(c(OC)c(Br)c2C(=O)NCCN2CCNCC2)OCO3)c2c1OCO2
EC50 [1]: 30 µg/mL (≈ 45.5 µM) | IC50 [2]: > 100 µg/mL | selectivity ratio [3]: > 3.3

COc1c(Br)c(C(=O)[O-])c(-c2c3c(c(OC)c(Br)c2C(=O)[O-])OCO3)c2c1OCO2.[Na+].[Na+]
EC50 [1]: > 100 µg/mL | IC50 [2]: > 100 µg/mL | selectivity ratio [3]: 1

COc1c(Br)c(C(=O)O)c(-c2c3c(c(OC)c(Br)c2C(=O)O)OCO3)c2c1OCO2
EC50 [1]: > 100 µg/mL | IC50 [2]: > 100 µg/mL | TI [3]: 1

COc1c2c(c3c(c1Br)c(=O)oc(=O)c1c(Br)c(OC)c4c(c13)OCO4)OCO2
C50 (H9 [4]): >100 µg/mL

COc1c(Br)c(C(=O)O)c(-c2c3c(c(OC)c(Br)c2C(=O)OCC[N+](C)(C)C)OCO3)c2c1OCO2.[Cl-]
EC50 [1]: > 100 µg/mL | IC50 [2]: > 100 µg/mL | selectivity ratio [3]: 1

CCOC(=O)c1c(Br)c(OC)c2c(c1-c1c3c(c(OC)c(Br)c1C(=O)[O-])OCO3)OCO2.[Na+]
IC50 [2]: > 100 µg/mL

COC(=O)c1c(Br)c(OC)c2c(c1-c1c3c(c(OC)c(Br)c1C(=O)OC)OCO3)OCO2
p24 [5]: 169 pg/mL and 141 pg/mL and 135 pg/mL and 142 pg/mL and 122 pg/mL and 123 pg/mL | p24 [6]: 31590 pg/mL and 35635 pg/mL and 30426 pg/mL and 32768 pg/mL and 29173 pg/mL and 27699 pg/mL | EC50 (H9 [7]): 0.23 µg/mL (≈ 0.399 µM) | p24 [8]: 15 pg/mL and 16 pg/mL and 14 pg/mL and 13 pg/mL and 17 pg/mL | p24 [9]: 10131 pg/mL and 10598 pg/mL and 11482 pg/mL and 9850 pg/mL and 8320 pg/mL and 7590 pg/mL | selectivity ratio [3]: > 480

COc1c(OC(=O)c2ccccc2)c(OC(=O)c2ccccc2)c(Br)c(CO)c1-c1c(CO)c(Br)c(OC(=O)c2ccccc2)c(OC(=O)c2ccccc2)c1OC
EC50 [1]: > 100 µg/mL | IC50 [2]: > 100 µg/mL | selectivity ratio [3]: 1

COC(=O)c1cc(OC(=O)c2ccccc2)c(OC(=O)c2ccccc2)c(OC)c1-c1c(OC)c(OC(=O)c2ccccc2)c(OC(=O)c2ccccc2)c(Br)c1C(=O)OC
EC50 [1]: > 100 µg/mL | IC50 [2]: > 100 µg/mL | selectivity ratio [3]: 1

CCCCCCOC(=O)c1c(Br)c(OC)c2c(c1-c1c3c(c(OC)c(Br)c1C(=O)OCCCCCC)OCO3)OCO2
EC50 [1]: 2 µg/mL (≈ 2.79 µM) | IC50 [2]: > 100 µg/mL | selectivity ratio [3]: > 50

COC(=O)c1cc(OC)c2c(c1-c1c3c(c(OC)c(Br)c1C(=O)OC)OCO3)OCO2
p24 [5]: 148 pg ml-1 [middle of 6 runs] | p24 [10]: 23373 pg/mL | p24 [6]: 46208 pg/mL and 28634 pg/mL and 24832 pg/mL and 26957 pg/mL and 27699 pg/mL | p24 [9]: 10746 pg/mL and 13376 pg/mL and 8774 pg/mL and 7616 pg/mL and 7200 pg/mL and 8314 pg/mL

COC(=O)c1c(Br)c(OC(=O)c2ccccc2)c(OC(=O)c2ccccc2)c(OC)c1-c1c(OC)c(OC(=O)c2ccccc2)c(OC(=O)c2ccccc2)c(Br)c1C(=O)OC
EC50 [1]: > 100 µg/mL | IC50 [2]: > 100 µg/mL | selectivity ratio [3]: 1

COc1c(Br)c(C(=O)O)c(-c2c3c(c(OC)c(Br)c2C(=O)O)OCO3)c2c1OCO2.OCCN1CCCC1.OCCN1CCCC1
EC50 [1]: 17 µg/mL | IC50 [2]: > 20 µg/mL | TI [3]: < 1.2

CCOC(=O)c1c(Br)c(OC)c2c(c1-c1c3c(c(OC)c(Br)c1C(=O)O)OCO3)OCO2
EC50 [1]: 60 µg/mL (≈ 104 µM) | IC50 [2]: > 100 µg/mL | selectivity ratio [3]: > 1.7

COc1c(OC(=O)c2ccccc2)c(OC(=O)c2ccccc2)cc(CO)c1-c1c(CO)c(Br)c(OC(=O)c2ccccc2)c(OC(=O)c2ccccc2)c1OC
EC50 [1]: 100 µg/mL (≈ 120 µM) | IC50 [2]: > 100 µg/mL | selectivity ratio [3]: > 1

Br.COc1c(Br)c(C(=O)O)c(-c2c3c(c(OC)c(Br)c2C(=O)NCCN2CCCC2)OCO3)c2c1OCO2
EC50 [1]: > 100 µg/mL | IC50 [2]: > 100 µg/mL | selectivity ratio [3]: 1

COC(=O)c1cc(OC)c2c(c1-c1c(C(=O)OC)cc(OC)c3c1OCO3)OCO2 [BIFENDATE]
EC50 [1]: 5 µg/mL (≈ 12 µM) | IC50 [2]: > 100 µg/mL | selectivity ratio [3]: > 20

Cc1cn([C@H]2C[C@H](N=[N+]=[N-])[C@@H](CO)O2)c(=O)[nH]c1=O [ZIDOVUDINE]
p24 (ACH-2 cell line [11]): 167 pg ml-1 [middle of 4 runs] | p24 (ACH-2 cell line [12]): 19814 pg/mL and 30758 pg/mL and 31808 pg/mL and 31360 pg/mL | p24 [8]: 22 pg/mL and 13 pg/mL and 12 pg/mL and 18 pg/mL | p24 [9]: 9338 pg/mL and 9299 pg/mL and 8218 pg/mL and 8070 pg/mL
